In PMC2453323 (PLoS Pathogens, 2008):

Tests used:
[1] = biological target: neuraminidase of A(H1N1) clinical isolate 0814/07 (Influenza A virus, UniProt D5F1R0); type: biochemical
[2] = biological target: neuraminidase of the 6 sensitive H1N1 viruses from the 2007–2008 season (Influenza A virus, UniProt D5F1R0); type: biochemical; settings: read-out: Mean Km, group Mean
[3] = biological target: neuraminidase of A(H1N1) clinical isolate 0497/07 (Influenza A virus (H1N1), UniProt D5F1R0); type: biochemical
[4] = biological target: neuraminidase of A(H1N1) clinical isolate 1149/08 (Influenza A virus, UniProt G3LYQ1); type: biochemical
[5] = biological target: neuraminidase of A(H1N1) clinical isolate 0650/04 (Influenza A virus (H1N1), UniProt B4YYP0); assay: biochemical
[6] = biological target: neuraminidase of A(H1N1) clinical isolate 0692/07 (Influenza A virus (H1N1), UniProt A8C8J7); type: biochemical
[7] = biological target: neuraminidase of A/Solomon Islands/3/2006(H1N1) (SI06) (Influenza A virus, UniProt B4URD9); type: biochemical
[8] = biological target: neuraminidase of A(H1N1) clinical isolate 1951/06 (Influenza A virus, UniProt B4URD9); type: biochemical
[9] = biological target: neuraminidase of A(H1N1) clinical isolate 0611/07 (Influenza A virus (H1N1), UniProt D5F1R0); type: biochemical
[10] = biological target: neuraminidase of A/New Caledonia/20/99(H1N1) (NC99) (Influenza A virus, UniProt Q7TG96); assay: biochemical; type: biochemical
[11] = biological target: neuraminidase of the 5 pre-2007–2008 H1N1 viruses (Influenza A virus, UniProt B4URD9); type: biochemical; settings: read-out: Mean Km, group Mean
[12] = biological target: neuraminidase of A(H1N1) clinical isolate 0286/07 (Influenza A virus (H1N1), UniProt D5F1R0); type: biochemical
[13] = biological target: neuraminidase of A(H1N1) clinical isolate 0974/08 (Influenza A virus, UniProt G3LYQ1); type: biochemical

Q: Which Km [1] does the source give for CC(=O)N[C@@H]1[C@@H](O)C[C@](Oc2ccc3c(C)cc(=O)oc3c2)(C(=O)O)O[C@H]1C(O)[C@H](O)CO (stereo partly shown) [MUNANA] here?
A: 9 µM

Q: And the Km [2]?
A: 9 ± 1.2 µM

Q: And the Km [3]?
A: 7.5 µM

Q: And the Km [4]?
A: 10.4 µM

Q: And the Km [5]?
A: 25.6 µM

Q: What about the Km [6] of the same compound?
A: 31.5 µM

Q: And the Km [7]?
A: 25.1 µM

Q: And the Km [8]?
A: 29.5 µM

Q: And the Km [9]?
A: 8 µM

Q: And the Km [10]?
A: 27.4 µM

Q: What about the Km [11] of the same compound?
A: 28 µM

Q: And the Km [12]?
A: 8.5 µM

Q: And the Km [13]?
A: 10.4 µM

Q: How did the Ki [5] turn out when CC(=O)N[C@H]1[C@H]([C@H](O)[C@H](O)CO)OC(C(=O)O)=C[C@@H]1N=C(N)N [Zana, zanamivir] was run?
A: 0.2 nM

Q: Which Ki [5] does the source give for CCOC(=O)C1=C[C@@H](OC(CC)CC)[C@H](NC(C)=O)[C@@H](N)C1 [OC, oseltamivir] here?
A: 0.2 nM

Q: What about the Ki [10] of the same compound?
A: 0.19 nM
